# Calls of active or inactive are those of the source.
# Legend:
# [1] = ADAM10 protease inhibitors, dose response, selectivity assay for ADAM17 exosite inhibitor project, biochemical, FRET peptide substrate, recombinant human ADAM10 (AID 743259);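 also: ADAM10 enzyme cleaving a FRET peptide substrate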
# HEK293 [2] = assay: NOD1 signaling inhibitors, primary screen, cell-based, luminescence, uHTS (AID 1578); type: functional; settings: Homo sapiens
# [3] = mammalian cell cytotoxicity, dose response, cytotoxicity control, plate reader, cherry-pick samples (AID 504397); type: functional, cell-based
# HEK293 [4] = assay: cells; type: functional, cell-based; settings: Homo sapiens
# CAAX prenyl protease 2 [5] = molecular target: T1, CAAX prenyl protease 2 (Saccharomyces cerevisiae S288c, UniProt Q03530); assay: yeast Rce1 CaaX protease inhibitors, dose response, biochemical, plate reader, dry powder retest (AID 588851)
# T1 sequence (Q03530 whole entry): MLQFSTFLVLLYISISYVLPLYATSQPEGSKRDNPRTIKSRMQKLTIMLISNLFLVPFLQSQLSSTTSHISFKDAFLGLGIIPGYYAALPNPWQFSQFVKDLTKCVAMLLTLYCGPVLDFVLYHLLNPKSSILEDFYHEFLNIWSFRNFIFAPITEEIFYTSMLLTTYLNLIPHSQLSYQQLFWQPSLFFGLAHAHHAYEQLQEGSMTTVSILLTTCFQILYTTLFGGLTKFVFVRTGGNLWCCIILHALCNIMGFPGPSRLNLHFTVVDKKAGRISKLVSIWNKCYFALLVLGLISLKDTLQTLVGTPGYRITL
# [6] = Luminescence Cell-Based Dose Retest to Confirm Inhibitors of Cancer Stem Cells. [Related pubchem assays (depositor defined):AID2717, AID2721]; type: functional; settings: Homo sapiens
# INS1 = assay: beta cell apoptosis inhibitors, cytokine rescue, dose response, luminescence, retest (AID 449756); type: functional, cell-based; settings: Rattus norvegicus;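 also: cell death triggered by IL-1 beta plus TNF-alpha plus IFN-gamma mixture; protective hits raise ATP signal compared with cytokine alone wells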
# Cytochrome P450 3A4 = Cytochrome P450 3A4 (Homo sapiens, UniProt P08684);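 also: CYP3A4 tested as one member of a cytochrome P450 panel screen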
# CAAX prenyl protease 2 [7] = molecular target: T1, CAAX prenyl protease 2; type: biochemical
# HEK293 [8] = assay: cells; type: functional, cell-based; settings: Homo sapiens; remark: listed apart in the source
# [9] = molecular target: Disintegrin and metalloproteinase domain-containing protein 17 (Homo sapiens, UniProt P78536); assay: exosite inhibitors of ADAM17, dose response, biochemical (AID 743260)
# HEK293 [10] = assay: NOD2 signaling inhibitors in MDP-stimulated cells, cell-based, uHTS, luminescence (AID 2001); type: functional; settings: Homo sapiens
# [11] = nonselective inhibitors of cellular cAMP signaling, dose response, counter-screen for MC4R biased antagonist project, cell-based, TR-FRET cAMP detection (AID 602305); type: functional;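 also: U2OS cells stimulated with forskolin near its EC80 as the cAMP inducer; potency is for inhibition of forskolin-stimulated cAMP signaling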
# Melanocortin receptor 4 = Melanocortin receptor 4 (Homo sapiens, UniProt P32245); assay: MC4R antagonist potency on cAMP, dose response, cell-based, TR-FRET, biased antagonists (AID 602298); type: functional;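 also: antagonist potency against agonist-stimulated cAMP production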
# [12] = molecular target: Protein disulfide-isomerase (Homo sapiens, UniProt P07237); assay: PDI inhibitors, insulin aggregation turbidity, dose response, biochemical, absorbance, cherry-picked samples (AID 602350); type: functional
# [13] = molecular target: T2, High affinity choline transporter 1 (Homo sapiens, UniProt Q9GZV3); assay: CHT activators, dose response, cell-based, 10-point CRC, membrane potential dye (AID 602376); type: functional
# T2 sequence (Q9GZV3 whole entry): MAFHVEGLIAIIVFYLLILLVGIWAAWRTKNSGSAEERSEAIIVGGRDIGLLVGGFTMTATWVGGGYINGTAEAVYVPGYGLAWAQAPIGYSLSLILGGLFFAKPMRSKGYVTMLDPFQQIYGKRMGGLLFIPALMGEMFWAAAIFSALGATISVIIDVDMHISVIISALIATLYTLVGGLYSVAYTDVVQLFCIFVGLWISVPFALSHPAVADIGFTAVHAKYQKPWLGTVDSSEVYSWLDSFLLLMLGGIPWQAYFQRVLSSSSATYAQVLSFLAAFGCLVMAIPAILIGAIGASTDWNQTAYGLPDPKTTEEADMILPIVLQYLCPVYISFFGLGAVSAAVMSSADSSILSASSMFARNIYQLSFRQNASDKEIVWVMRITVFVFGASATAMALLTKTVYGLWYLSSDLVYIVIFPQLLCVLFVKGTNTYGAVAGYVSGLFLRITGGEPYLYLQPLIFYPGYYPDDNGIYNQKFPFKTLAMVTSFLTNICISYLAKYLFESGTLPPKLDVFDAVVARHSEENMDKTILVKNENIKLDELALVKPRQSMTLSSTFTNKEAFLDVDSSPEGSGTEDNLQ
# Aurora kinase A = Aurora kinase A (Homo sapiens, UniProt O14965); type: functional;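 also: value from the Navigating the Kinome kinase panel profiling, panel entry STK6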
# [14] = molecular target: Vascular endothelial growth factor receptor 2 (Homo sapiens, UniProt P35968); type: functional
# Aurora kinase B = Aurora kinase B (Homo sapiens, UniProt Q96GD4); type: functional
# [15] = molecular target: Cyclin-dependent kinase 19 (Homo sapiens, UniProt Q9BWU1); assay: Navigating the Kinome. Panel member name: CDC2L6; type: functional
# [16] = molecular target: Inhibitor of nuclear factor kappa-B kinase subunit epsilon (Homo sapiens, UniProt Q14164); assay: Navigating the Kinome. Panel member name: IKBKE; type: functional
# [17] = molecular target: Neuropeptides B/W receptor type 1 (Homo sapiens, UniProt P48145); assay: GPR7 antagonist potency, late-stage follow-up, cell-based, fluorescence, dose response, set 6 (AID 588583); type: functional
# [18] = molecular target: Melanin-concentrating hormone receptor 1 (Homo sapiens, UniProt Q99705); assay: Late-stage fluorescence-based counterscreen for antagonists of the G-protein coupled receptor 7 (GPR7): cell-based dose response assay to identify antagonists of the melanin-concentrating hormone receptor 1 (MCHR1) Set 6.; type: functional
# [19] = molecular target: T3, DNA dC->dU-editing enzyme APOBEC-3A (Homo sapiens, UniProt P31941); assay: SAR analysis of small molecule inhibitors of APOBEC3A DNA Deaminase via a fluorescence-based single-stranded DNA deaminase assay - Set 2.; type: functional; settings: read-out: IC50_Mean
# [20] = molecular target: T4, DNA dC->dU-editing enzyme APOBEC-3G (Homo sapiens, UniProt Q9HC16); assay: SAR analysis of small molecule inhibitors of APOBEC3G DNA Deaminase via a fluorescence-based single-stranded DNA deaminase assay - Set 2.; type: functional; settings: read-out: IC50_Mean
# [21] = molecular target: T3, DNA dC->dU-editing enzyme APOBEC-3A; assay: SAR analysis of small molecule inhibitors of APOBEC3A DNA Deaminase via a fluorescence-based single-stranded DNA deaminase assay.; type: functional; settings: read-out: IC50_Mean
# [22] = molecular target: T4, DNA dC->dU-editing enzyme APOBEC-3G; assay: APOBEC3G deaminase inhibitors, SAR follow-up, biochemical, fluorescence, single-stranded DNA substrate (AID 602136); type: functional; settings: read-out: IC50_Mean
# T4 sequence (Q9HC16 whole entry): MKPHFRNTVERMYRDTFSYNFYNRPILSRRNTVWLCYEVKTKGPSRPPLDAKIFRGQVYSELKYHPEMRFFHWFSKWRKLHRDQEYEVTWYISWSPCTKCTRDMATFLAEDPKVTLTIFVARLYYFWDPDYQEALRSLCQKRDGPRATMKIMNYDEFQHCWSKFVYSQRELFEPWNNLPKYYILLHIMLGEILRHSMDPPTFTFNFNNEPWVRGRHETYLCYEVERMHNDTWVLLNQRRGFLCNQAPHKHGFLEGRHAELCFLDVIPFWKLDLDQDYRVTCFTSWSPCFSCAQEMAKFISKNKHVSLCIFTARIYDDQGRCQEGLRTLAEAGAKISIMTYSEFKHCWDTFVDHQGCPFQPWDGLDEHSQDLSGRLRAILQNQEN
# T3 sequence (P31941 whole entry): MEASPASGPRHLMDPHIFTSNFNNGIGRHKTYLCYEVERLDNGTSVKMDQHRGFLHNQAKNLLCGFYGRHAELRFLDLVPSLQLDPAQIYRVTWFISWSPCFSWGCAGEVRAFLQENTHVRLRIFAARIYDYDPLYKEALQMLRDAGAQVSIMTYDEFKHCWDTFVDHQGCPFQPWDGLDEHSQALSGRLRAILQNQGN
# Sequence of Vascular endothelial growth factor receptor 2 (P35968 whole entry): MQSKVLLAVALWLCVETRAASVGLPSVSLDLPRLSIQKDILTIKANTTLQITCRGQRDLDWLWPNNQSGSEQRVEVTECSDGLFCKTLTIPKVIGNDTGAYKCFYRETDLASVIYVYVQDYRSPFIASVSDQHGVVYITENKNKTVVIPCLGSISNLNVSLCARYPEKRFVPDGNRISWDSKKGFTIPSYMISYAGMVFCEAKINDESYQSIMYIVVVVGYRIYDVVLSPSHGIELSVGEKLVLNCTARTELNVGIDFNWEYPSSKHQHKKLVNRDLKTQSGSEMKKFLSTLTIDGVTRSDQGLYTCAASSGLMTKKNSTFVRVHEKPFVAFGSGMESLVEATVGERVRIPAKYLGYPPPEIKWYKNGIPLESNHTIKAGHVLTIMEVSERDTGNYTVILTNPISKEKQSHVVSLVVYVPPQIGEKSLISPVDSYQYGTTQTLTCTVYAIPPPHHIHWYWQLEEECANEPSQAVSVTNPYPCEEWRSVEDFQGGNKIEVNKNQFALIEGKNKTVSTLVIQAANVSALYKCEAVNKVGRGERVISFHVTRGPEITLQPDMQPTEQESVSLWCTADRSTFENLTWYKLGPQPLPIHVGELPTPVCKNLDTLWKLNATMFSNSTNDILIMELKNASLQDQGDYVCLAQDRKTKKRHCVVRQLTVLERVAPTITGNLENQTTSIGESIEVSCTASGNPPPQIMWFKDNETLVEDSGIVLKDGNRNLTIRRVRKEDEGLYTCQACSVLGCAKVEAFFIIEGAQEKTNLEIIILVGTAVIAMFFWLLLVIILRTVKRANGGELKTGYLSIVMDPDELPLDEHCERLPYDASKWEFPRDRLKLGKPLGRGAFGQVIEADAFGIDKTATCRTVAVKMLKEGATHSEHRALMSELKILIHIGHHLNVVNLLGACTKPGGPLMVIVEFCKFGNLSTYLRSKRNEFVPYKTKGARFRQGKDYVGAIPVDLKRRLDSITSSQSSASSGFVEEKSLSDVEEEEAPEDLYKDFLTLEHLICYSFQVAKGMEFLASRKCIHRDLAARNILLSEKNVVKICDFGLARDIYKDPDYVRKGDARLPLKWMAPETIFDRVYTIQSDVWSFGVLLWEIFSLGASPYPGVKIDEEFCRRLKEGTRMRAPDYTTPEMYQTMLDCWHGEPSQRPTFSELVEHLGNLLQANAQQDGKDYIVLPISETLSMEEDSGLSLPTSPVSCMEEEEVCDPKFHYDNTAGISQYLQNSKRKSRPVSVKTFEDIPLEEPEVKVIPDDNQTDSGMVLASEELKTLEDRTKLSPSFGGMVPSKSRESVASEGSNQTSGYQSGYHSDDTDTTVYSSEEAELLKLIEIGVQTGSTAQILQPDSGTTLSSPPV
# Sequence of Protein disulfide-isomerase (P07237 whole entry): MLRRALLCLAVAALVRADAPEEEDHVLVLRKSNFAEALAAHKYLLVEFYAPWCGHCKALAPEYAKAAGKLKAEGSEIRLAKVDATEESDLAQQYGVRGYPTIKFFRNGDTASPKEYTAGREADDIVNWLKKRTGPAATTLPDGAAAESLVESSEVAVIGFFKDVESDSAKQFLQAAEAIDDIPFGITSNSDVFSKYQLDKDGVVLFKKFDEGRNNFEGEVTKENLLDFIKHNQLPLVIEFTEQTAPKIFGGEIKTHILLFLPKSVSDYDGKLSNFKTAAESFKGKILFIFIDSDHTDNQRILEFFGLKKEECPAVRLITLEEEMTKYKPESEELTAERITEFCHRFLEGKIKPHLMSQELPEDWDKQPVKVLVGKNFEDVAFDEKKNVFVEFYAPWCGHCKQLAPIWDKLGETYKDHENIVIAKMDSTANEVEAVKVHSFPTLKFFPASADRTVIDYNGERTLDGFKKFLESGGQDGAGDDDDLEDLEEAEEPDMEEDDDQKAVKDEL
# Sequence of Melanin-concentrating hormone receptor 1 (Q99705 whole entry): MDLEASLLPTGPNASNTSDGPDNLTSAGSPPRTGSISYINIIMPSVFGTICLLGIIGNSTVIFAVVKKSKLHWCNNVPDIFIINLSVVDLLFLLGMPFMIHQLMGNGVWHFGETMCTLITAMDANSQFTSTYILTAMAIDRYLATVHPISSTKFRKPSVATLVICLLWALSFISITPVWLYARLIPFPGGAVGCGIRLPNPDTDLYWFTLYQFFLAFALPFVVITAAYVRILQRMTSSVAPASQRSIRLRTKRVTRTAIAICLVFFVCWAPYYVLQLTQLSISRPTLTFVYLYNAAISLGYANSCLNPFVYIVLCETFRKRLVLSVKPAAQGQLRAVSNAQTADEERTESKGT
# Sequence of Disintegrin and metalloproteinase domain-containing protein 17 (P78536 whole entry, the tested form may be a part): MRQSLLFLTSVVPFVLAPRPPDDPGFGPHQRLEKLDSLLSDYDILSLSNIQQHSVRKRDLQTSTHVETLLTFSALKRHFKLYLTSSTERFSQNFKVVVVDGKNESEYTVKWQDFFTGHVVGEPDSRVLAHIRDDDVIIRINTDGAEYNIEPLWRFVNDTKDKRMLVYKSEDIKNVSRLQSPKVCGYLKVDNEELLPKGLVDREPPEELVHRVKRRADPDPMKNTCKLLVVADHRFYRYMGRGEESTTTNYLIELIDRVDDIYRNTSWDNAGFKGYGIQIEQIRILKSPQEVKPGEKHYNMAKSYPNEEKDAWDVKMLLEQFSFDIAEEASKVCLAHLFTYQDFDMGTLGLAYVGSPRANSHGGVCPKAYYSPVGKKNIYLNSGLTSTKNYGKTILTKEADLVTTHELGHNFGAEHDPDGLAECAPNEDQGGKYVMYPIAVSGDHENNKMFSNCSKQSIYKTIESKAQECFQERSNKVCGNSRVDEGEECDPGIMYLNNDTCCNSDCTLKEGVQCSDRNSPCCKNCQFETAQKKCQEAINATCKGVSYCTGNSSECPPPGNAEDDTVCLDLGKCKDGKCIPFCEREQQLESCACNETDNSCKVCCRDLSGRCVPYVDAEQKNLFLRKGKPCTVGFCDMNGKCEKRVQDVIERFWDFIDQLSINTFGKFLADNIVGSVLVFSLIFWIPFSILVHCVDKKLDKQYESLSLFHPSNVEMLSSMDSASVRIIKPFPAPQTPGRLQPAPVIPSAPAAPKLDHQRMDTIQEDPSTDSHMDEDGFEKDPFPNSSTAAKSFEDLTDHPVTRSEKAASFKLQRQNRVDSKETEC
# Sequence of Cytochrome P450 3A4 (P08684 whole entry): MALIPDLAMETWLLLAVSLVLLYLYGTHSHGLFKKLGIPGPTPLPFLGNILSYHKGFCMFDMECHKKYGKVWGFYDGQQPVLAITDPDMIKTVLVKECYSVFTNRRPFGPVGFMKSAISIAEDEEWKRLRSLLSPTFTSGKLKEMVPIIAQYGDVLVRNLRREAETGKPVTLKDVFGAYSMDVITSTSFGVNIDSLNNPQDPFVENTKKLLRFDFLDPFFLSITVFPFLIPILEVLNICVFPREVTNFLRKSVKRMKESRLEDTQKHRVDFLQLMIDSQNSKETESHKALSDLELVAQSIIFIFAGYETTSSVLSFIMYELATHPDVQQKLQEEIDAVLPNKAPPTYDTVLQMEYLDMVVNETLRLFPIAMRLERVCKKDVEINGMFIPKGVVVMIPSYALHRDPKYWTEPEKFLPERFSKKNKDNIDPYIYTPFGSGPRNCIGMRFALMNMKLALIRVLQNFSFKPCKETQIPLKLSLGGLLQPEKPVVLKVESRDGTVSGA
# Sequence of Neuropeptides B/W receptor type 1 (P48145 whole entry): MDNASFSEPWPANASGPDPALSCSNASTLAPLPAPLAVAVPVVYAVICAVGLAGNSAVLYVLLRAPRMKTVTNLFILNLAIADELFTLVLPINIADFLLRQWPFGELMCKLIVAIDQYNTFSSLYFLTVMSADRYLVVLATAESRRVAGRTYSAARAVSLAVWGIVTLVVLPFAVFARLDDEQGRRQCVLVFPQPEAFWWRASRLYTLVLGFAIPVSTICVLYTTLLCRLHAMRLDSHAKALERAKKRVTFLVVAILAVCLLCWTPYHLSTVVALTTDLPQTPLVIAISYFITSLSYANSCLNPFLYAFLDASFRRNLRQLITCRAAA
# Sequence of Melanocortin receptor 4 (P32245 whole entry): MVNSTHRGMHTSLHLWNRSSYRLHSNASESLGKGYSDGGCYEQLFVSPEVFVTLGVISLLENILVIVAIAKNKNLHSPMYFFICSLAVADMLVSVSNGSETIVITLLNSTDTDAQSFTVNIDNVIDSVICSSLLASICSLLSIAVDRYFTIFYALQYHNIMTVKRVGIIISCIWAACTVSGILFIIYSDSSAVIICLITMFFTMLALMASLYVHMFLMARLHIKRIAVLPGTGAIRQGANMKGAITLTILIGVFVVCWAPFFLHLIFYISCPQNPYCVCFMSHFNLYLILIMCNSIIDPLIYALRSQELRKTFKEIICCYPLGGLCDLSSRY
structure (smiles),measurement,setting,value
Cc1cc(C)n(Cc2ccc(NC(=O)c3ccc(COc4ccccc4Br)cc3)cc2)n1,IC50,[1],> 69.5 µM (inactive)
same,EC50,HEK293 [2],8.42 µM (active)
same,AC50,[3],48.8 µM (active)
same,IC50,HEK293 [4],4.34 µM (active)
same,AC50,CAAX prenyl protease 2 [5],9.4 µM (active)
same,AC50,[6],1.56 µM (active)
same,AC50,INS1,8.58 µM (active)
same,AC50,Cytochrome P450 3A4,14.1 µM (inconclusive)
same,AC50,CAAX prenyl protease 2 [7],1.08 µM (active)
same,IC50,HEK293 [8],13.2 µM (active)
same,IC50,[9],> 69.5 µM (inactive)
same,IC50,HEK293 [10],4.26 µM (active)
Cc1nc2c(sc3nc(N4CCOCC4)c4c(c32)CC(C)(C)OC4)c(-c2ccccc2)c1C(=O)O,AC50,[6],0.324 µM (active)
same,IC50,[11],> 64.6 µM (inactive)
same,IC50,Melanocortin receptor 4,15.5 µM (inactive)
CN(C)S(=O)(=O)c1ccc(Cl)c(NC(=O)CSc2nnnn2-c2ccc(O)cc2)c1,AC50,[12],19.5 µM (active)
CCOC(=O)c1sc(NC(=O)Cc2ccccc2OC)nc1C,EC50,[13],22.4 µM (active)
Cn1c(SC(C(=O)O)c2ccccc2)nc2ccccc2c1=O (stereo not drawn),Ki,Aurora kinase A,> 2 µM (inactive)
same,Ki,[14],> 5.01 µM (inactive)
same,Ki,Aurora kinase B,0.0794 µM (active)
Nc1noc2c(CN3CCOCC3)ccc(-c3ccc(NC(=O)Nc4cc(C(F)(F)F)ccc4F)cc3)c12,Ki,[15],> 100 µM (inactive)
same,Ki,[16],1 µM (active)
N#CC(C(=O)N1CCCC1)c1c(Cl)cnn(Cc2cccc3ccccc23)c1=O (stereo not drawn),IC50,[17],0.915 µM (active)
same,IC50,[18],0.915 µM (active)
Cc1cc(C)n2nc(C(=O)NCc3ccccc3)c(Br)c2n1,IC50,[19],76.8 µM (inactive)
same,IC50,[20],> 99 µM (inactive)
COc1ccc(-c2nnc(SC(C)C(=O)Nc3nc(-c4ccc(F)c(F)c4)cs3)[nH]2)cc1 (stereo not drawn),IC50,[21],> 99 µM (inactive)
same,IC50,[22],40.5 µM (inactive)

# Reference: ChEMBL document CHEMBL1201862, “PubChem BioAssay data set” (2004)
